Some test systems named below: HCT-15 colon; HT29 colon; M14 melanoma; NCI-H226 lung; NCI-H522 lung; NCI/ADR-RES ovarian; OVCAR-5 ovarian; OVCAR-8 ovarian; SK-MEL-28 melanoma; SR leukemia.
What all share (experiment): NCI-60 cell line screen, 48 h

Values joined by “and” are separate entries in the source; they are usually repeats but may differ in a detail not shown here. Identical values can stand only once.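 Interpolation was linear, between the two tested concentrations surrounding the appropriate level; five concentrations were tested over 48 hours in 96-well plates. At the GI50, growth is halved. TGI denotes the concentration required for complete inhibition of growth.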 Some results are limits rather than exact numbers.

For `O=C(O)CCCCn1cnc2c(=S)nc[nH]c21`, the TGI in the test with HCT-15 colon, with HT29 colon, in the test with M14 melanoma, in the test with NCI-H226 lung, with NCI-H522 lung and in the test with NCI/ADR-RES ovarian was more than 100 µM throughout. The TGI in the test with OVCAR-5 ovarian, in the test with OVCAR-8 ovarian, in the test with SK-MEL-28 melanoma and with SR leukemia was more than 100 µM throughout.
`C#CCNC(=O)CC[C@]1(C)[C@H]2CC[C@@H]3[C@@H]([C@@](C)(O)CCC=C(C)C)CC[C@@]3(C)[C@]2(C)CC[C@H]1C(=C)C`: the GI50 in the test on HCT-15 colon is 20.8 µM; with HT29 colon, 18.8 µM; in the test on M14 melanoma, 30.9 µM; in the test with NCI-H226 lung, 18.3 µM; in the test with NCI-H522 lung, 15.2 µM; in the test with NCI/ADR-RES ovarian, 40.5 µM. For the same compound, the GI50 is 51.9 µM in the test on OVCAR-5 ovarian, 31.3 µM with OVCAR-8 ovarian, 26.9 µM in the test with SK-MEL-28 melanoma and 3.05 µM in the test with SR leukemia. Besides, the TGI in the test with HCT-15 colon was 59.3 µM; in the test with HT29 colon it was 42.9 µM; in the test on M14 melanoma, more than 100 µM; with NCI-H226 lung it was 43.1 µM; in the test on NCI-H522 lung, 35.1 µM; in the test on NCI/ADR-RES ovarian it was more than 100 µM. For the same compound, the TGI is more than 100 µM in the test on OVCAR-5 ovarian, more than 100 µM in the test with OVCAR-8 ovarian, 80 µM in the test on SK-MEL-28 melanoma and 19.2 µM in the test on SR leukemia.
Turning to `C=C1C(=O)O[C@@H]2C[C@@H]1CC[C@@]1(C)O[C@@H]1CC[C@@]1(C)O[C@@H]1CC[C@@]2(C)O`, the GI50 with HCT-15 colon is 24 µM; in the test on HT29 colon, 21 µM; in the test on M14 melanoma, 21.4 µM; with NCI-H226 lung, 16.9 µM; in the test with NCI-H522 lung, 17.5 µM; in the test on NCI/ADR-RES ovarian, 32.4 µM. Also, the GI50 in the test with OVCAR-5 ovarian was 20.5 µM; in the test on OVCAR-8 ovarian it was 29 µM; in the test on SK-MEL-28 melanoma, 17.4 µM; in the test with SR leukemia, 3.12 µM. The TGI with HCT-15 colon amounted to 70.1 µM; with HT29 colon, 63.2 µM; in the test with M14 melanoma it was 42.4 µM; with NCI-H226 lung it was 35.9 µM; in the test with NCI-H522 lung, 45.4 µM; with NCI/ADR-RES ovarian, 78.3 µM. Besides, the TGI with OVCAR-5 ovarian is 56.5 µM; in the test on OVCAR-8 ovarian, more than 100 µM; in the test on SK-MEL-28 melanoma it was 34.8 µM; in the test on SR leukemia it was 16.3 µM.
`O=C1/C(=C/c2ccccc2)CCC/C1=C\c1ccccc1`: the GI50 in the test on HCT-15 colon is 5.91 µM and 6.43 µM; in the test on HT29 colon, 2.54 µM; in the test with M14 melanoma, 2.96 µM; in the test with NCI-H226 lung it was 7.83 µM and 12.5 µM; in the test with NCI-H522 lung, 6.46 µM and 13.7 µM and 15.7 µM; with NCI/ADR-RES ovarian it was 17.5 µM. Further, the GI50 in the test with OVCAR-5 ovarian was 6.75 µM and 22 µM; in the test on OVCAR-8 ovarian, 3.57 µM; in the test on SK-MEL-28 melanoma, 6.84 µM and 18.9 µM; with SR leukemia, 10.8 µM and 3.16 µM. Also, the TGI with HCT-15 colon is 11.9 µM and 31.7 µM and 43.8 µM; in the test on HT29 colon, 11.5 µM and 18.7 µM and 5.96 µM; in the test with M14 melanoma, 12.9 µM and 19 µM and 7.88 µM; with NCI-H226 lung, 13.8 µM and 35.1 µM and 33 µM; in the test on NCI-H522 lung it was 11.8 µM and 31.8 µM and 35 µM; in the test with NCI/ADR-RES ovarian it was 17.1 µM and 95.5 µM. The TGI in the test with OVCAR-5 ovarian was 12 µM and 31.7 µM and 43.3 µM; in the test on OVCAR-8 ovarian it was 13.6 µM and 28.1 µM and 25.4 µM; in the test with SK-MEL-28 melanoma, 12.3 µM and 32.7 µM and 38.2 µM; in the test with SR leukemia, 36.5 µM and > 64.3 µM and 7.58 µM.
For the compound `CC[CH2][Sn]([Cl])([Cl])[CH2]CC`, the GI50 in the test with HCT-15 colon was 11.3 µM; in the test on HT29 colon, 14.4 µM; in the test on M14 melanoma, 11.1 µM; with NCI-H226 lung, 4.02 µM; in the test on NCI-H522 lung, 0.354 µM; in the test with NCI/ADR-RES ovarian, 15.8 µM. Besides, the GI50 in the test with OVCAR-5 ovarian is 16.6 µM; in the test on OVCAR-8 ovarian it was 14.7 µM; in the test with SK-MEL-28 melanoma, 11.4 µM; with SR leukemia, 3.38 µM. Besides, the TGI in the test with HCT-15 colon is 25.5 µM; in the test on HT29 colon, 30.9 µM; with M14 melanoma it was 24.1 µM; in the test with NCI-H226 lung it was 16.5 µM; with NCI-H522 lung, 1.62 µM; in the test with NCI/ADR-RES ovarian, 30.7 µM. For the same compound, the TGI with OVCAR-5 ovarian came out at 31 µM; in the test on OVCAR-8 ovarian, 30.1 µM; in the test on SK-MEL-28 melanoma it was 23.7 µM; with SR leukemia, 80.7 µM.
Regarding `CC(=O)OC(C)(C)N=Nc1ccc(Br)cc1`, the TGI in the test on HCT-15 colon is more than 100 µM; in the test with HT29 colon, more than 100 µM; in the test on M14 melanoma, more than 100 µM; in the test on NCI-H226 lung, more than 50.5 µM; with NCI-H522 lung, 33.8 µM; with NCI/ADR-RES ovarian it was 76.7 µM. Moreover, the TGI is more than 100 µM with OVCAR-5 ovarian, 64.1 µM with OVCAR-8 ovarian, more than 100 µM in the test on SK-MEL-28 melanoma and 43.3 µM in the test with SR leukemia.
Take `CCOC(=O)C(=O)N=Nc1nc2c(O)c3ccccc3c(O)c2s1`: the TGI in the test with HCT-15 colon was 6.49 µM; in the test on HT29 colon, 35 µM; with M14 melanoma it was 4.7 µM; in the test on NCI-H226 lung, 30.2 µM; in the test with NCI-H522 lung it was 8.79 µM; in the test on NCI/ADR-RES ovarian it was 4.89 µM. For the same compound, the TGI with OVCAR-5 ovarian is 16.1 µM; in the test with OVCAR-8 ovarian it was 5.12 µM; with SK-MEL-28 melanoma, 6.38 µM; in the test on SR leukemia it was more than 100 µM.
As for `Cc1nc(/N=C(\N)NC(=O)Nc2ccccc2Cl)sc1C`, the GI50 in the test with HCT-15 colon is 0.25 µM; in the test with HT29 colon, 0.333 µM; in the test on M14 melanoma it was 0.314 µM; in the test with NCI-H226 lung, 1.15 µM; in the test on NCI-H522 lung it was 0.189 µM; in the test with NCI/ADR-RES ovarian, 0.271 µM. For the same compound, the GI50 in the test on OVCAR-5 ovarian was 1.32 µM; with OVCAR-8 ovarian, 0.592 µM; in the test on SK-MEL-28 melanoma, 0.916 µM; in the test on SR leukemia, 0.173 µM. The TGI in the test on HCT-15 colon is more than 100 µM; in the test on HT29 colon, 5.32 µM; with M14 melanoma it was 18.7 µM; in the test with NCI-H226 lung, 14.9 µM; in the test on NCI/ADR-RES ovarian it was 3.28 µM; with OVCAR-5 ovarian, more than 100 µM. Further, the TGI was more than 40.2 µM with OVCAR-8 ovarian, more than 100 µM with SK-MEL-28 melanoma and 35.5 µM in the test on SR leukemia.
On to `O=C1c2ccccc2-c2c1c1ccccc1c(=O)n2CCCN1CCN(CCCn2c3c(c4ccccc4c2=O)C(=O)c2ccccc2-3)CC1`, for which the GI50 in the test with HCT-15 colon is more than 79.7 µM; in the test with HT29 colon, more than 100 µM; with M14 melanoma it was more than 100 µM; in the test with NCI-H226 lung, more than 76.5 µM; with NCI-H522 lung it was more than 100 µM; with NCI/ADR-RES ovarian, more than 100 µM. Besides, the GI50 in the test on OVCAR-5 ovarian was more than 100 µM; with OVCAR-8 ovarian, 15.6 µM; with SK-MEL-28 melanoma it was more than 100 µM; in the test on SR leukemia it was 0.0809 µM. The TGI with HCT-15 colon, with HT29 colon, in the test on M14 melanoma, in the test on NCI-H226 lung, in the test with NCI-H522 lung and in the test on NCI/ADR-RES ovarian was more than 100 µM in each case. Besides, the TGI in the test with OVCAR-5 ovarian was more than 100 µM; in the test on OVCAR-8 ovarian it was more than 100 µM; with SK-MEL-28 melanoma it was more than 100 µM; in the test with SR leukemia, 17.9 µM.

The values above are taken from PubChem BioAssay (NCI).
